In patent US20250257383A1, “MATERIAL DETECTION METHOD USING AMINOACYLASE” (JOSHO GAKUEN EDUCATIONAL FOUNDATION, priority 2021, published 2025):

Legend:
[1] = test system: amidohydrolase 4ewt (amino acid sequence of SEQ ID NO: 1, SACOL0085); test: Enzymatic detection of hippuric acid or methylhippuric acid by hydrolysis with amidohydrolase 4ewt and glycine oxidase/Trinder absorbance measurement (Example); format: biochemical, Staphylococcus aureus COL; conditions: amidohydrolase 4ewt 30 units/mL; specimens 5, 10, 20 mM in saline; 37° C.; Tris buffer pH 8.5; absorbance 545 nm; FIG. 3
Procedure: A first reagent R1 was prepared which contained 30 units/mL of amidohydrolase 4ewt, 7.5 units/mL of peroxidase, 4.5 mM of N-ethyl-N-(2-hydroxy-3-sulfopropyl)-3-methoxyaniline (TOOS), and 50 mM of Tris buffer (pH 8.5), and a second reagent R2 was prepared which contained 5 units/mL of glycine oxidase, 1.2 mM of 4-aminoantipyrine, and 100 mM of Tris buffer (pH 8.5).
Specimen Groups 1 to 4 and Specimen 0 were prepared as measurement samples, i.e., examination specimens.
Each of the examination specimens was diluted to five times by means of an automatic analyzer to prepare a diluted specimen solution. A volume of 60 μL of the first reagent R1 was added and mixed with 2 μL of the diluted specimen solution, and the reaction was allowed to proceed well at 37° C. After that, 20 μL of the second reagent R2 was further added and mixed with the reaction mixture, and the reaction was allowed to proceed well at 37° C. The absorbance of the resulting specimen solution was measured using an automatic analyzer, manufactured by JEOL Ltd. under the trade name JCA-BM 6050, at a primary wavelength of 545 nm and a secondary wavelength of 805 nm. The concentration of hippuric acid or methylhippuric acid in each examination specimen was calculated from the measured absorbance and plotted on a graph.
In FIG. 3, the abscissa represents known concentrations (unit: mM) of hippuric acid or methylhippuric acid in the examination specimens and the ordinate represents measured concentrations (unit: mM) obtained by the automatic analyzer. In FIG. 3, the diamond symbols represent the specimens of Specimen Group 1, namely the examination specimens containing hippuric acid, the square symbols represent the specimens of Specimen Group 2, namely the examination specimens containing 2-methylhippuric acid, the triangle symbols represent the specimens of Specimen Group 3, namely the examination specimens containing 3-methylhippuric acid, and the x symbols represent the specimens of Specimen Group 4, namely the examination specimens containing 4-methylhippuric acid. The examination specimen for which the known concentration is 0 mM is Specimen 0, which is represented by using all of the symbols representing Specimen Groups 1 to 4 since, as previously stated, Specimen 0 was used as a negative control in measurement for the Specimen Groups 1 to 4.
The amidohydrolase 4ewt used in Example was produced using a gene chemically synthesized by converting the amino acid sequence of SEQ ID NO: 1 to a base sequence. […]

aminoacylase PH1043 = test: Same detection method using aminoacylase PH1043 (Comparative Example 1); format: biochemical, Pyrococcus horikoshii; conditions: aminoacylase PH1043 instead of amidohydrolase; specimens 5, 10, 20 mM in saline; 37° C.; FIG. 4
Procedure: (§1) The absorbance of each specimen was measured in the same manner as in Example, except for using hitherto known aminoacylase PH1043 instead of the amidohydrolase used in Example. The concentration of hippuric acid or methylhippuric acid in each examination specimen was calculated from the measured absorbance and plotted on a graph. The abscissa, ordinate, and symbols in FIG. 4 are the same as those in FIG. 3.
The aminoacylase PH1043 used in Comparative Example 1 is one produced by Nipro Corporation. The aminoacylase PH1043 will not be described in detail as it is a hitherto known enzyme described, for example, in the following literatures: Imai Satsuki, Nagoshi Kentaro, Shinki Shota, Baba Toshiaki, Nishiya Yoshiaki, “Functional Modification of Pyrococcus horikoshii-Derived Hippurate Hydrolase”, The Society for Biotechnology, Japan (2018) (Reference Literature 7); Imai Satsuki, Nagoshi Kentaro, Shinki Shota, Baba Toshiaki, Nishiya Yoshiaki, “Development of Method and Enzyme for Enzymatic Assay of Hippuric Acid”, The Society of Analytical Bio-Science (2019) (Reference Literature 8); Imai Satsuki, Nagoshi Kentaro, Shinki Shota, Baba Toshiaki, Nishiya Yoshiaki, “Functional Improvement of Hippurate Hydrolase”, Japan Society for Bioscience, Biotechnology and Agrochemistry (2019) (Reference Literature 9); Imai Satsuki, Nagoshi Kentaro, Shinki Shota, Baba Toshiaki, Nishiya Yoshiaki, “Functional Improvement of Hippurate Hydrolase toward Practical Use”, The Molecular Biology Society of Japan (2019) (Reference Literature 10); Imai Satsuki, Nagoshi Kentaro, Shinki Shota, Baba Toshiaki, Nishiya Yoshiaki, “Development of Enzymatic Assay Method for Determining Total Exposure to Toluene and Xylene (1)”, The Society of Analytical Bio-Science (2020) (Reference Literature 11); and Suginaka Muneyuki, Torii Gento, Imai Satsuki, Baba Toshiaki, Nishiya Yoshiaki, “Development of Enzymatic Assay Method for Determining Total Exposure to Toluene and Xylene (2)”, The Molecular Biology Society of Japan (2020) (Reference Literature 12). The contents of Reference Literatures 7 to 12 are incorporated herein by reference.

[2] = test system: hippurate hydrolase (EC 3.5.1.32); test: Same detection method using hippurate hydrolase (Comparative Example 2); format: biochemical; conditions: hippurate hydrolase instead of amidohydrolase; specimens 5, 10, 20 mM in saline; 37° C.; FIG. 5
Procedure: as §1, with “using a” for “using”, “hippurate hydrolase (EC 3.5.1.32, manufactured by Nipro Corporation)” for “aminoacylase PH1043”, “5” for “4”, “3 or 4.” for “3.”

SMILES | agreement of measured concentration with known concentration in the specimen (hydrolysis by the enzyme) [1] | agreement of measured concentration with actual concentration in the specimen (hydrolysis by the enzyme) (aminoacylase PH1043) | agreement of measured concentration with actual concentration in the specimen (hydrolysis by the enzyme) [2]
Cc1ccccc1C(=O)NCC(=O)O [2-methylhippuric acid, (2-methylbenzoylamino)acetic acid] | agree well with each other | not much different from the measured concentration obtained for the negative control | not much different from the measured concentration obtained for the negative control
Cc1cccc(C(=O)NCC(=O)O)c1 [3-methylhippuric acid] | agree well with each other | agreed well with the actual concentrations | agreed well with the actual concentrations
Cc1ccc(C(=O)NCC(=O)O)cc1 [4-methylhippuric acid] | agree well with each other | agreed well with the actual concentrations | agreed well with the actual concentrations
O=C(O)CNC(=O)c1ccccc1 [hippuric acid, benzoylaminoacetic acid] | agree well with each other | agreed well with the actual concentrations | agreed well with the actual concentrations
